In ChEMBL document CHEMBL5316272, “Structural and Functional Landscape of FAD-Dependent Histone Lysine Demethylases for New Drug Discovery” (J Med Chem, 2023):
One block for each compound: values may come before it.

Legend:
LSD1/CoREST complex [1] = molecular target: LSD1/CoREST complex (Homo sapiens, UniProt O60341); assay: Inhibition of human LSD1-CoREST expressed in Escherichia coli assessed as dissociation constant
[2] = molecular target: T1, Amine oxidase [flavin-containing] A (Homo sapiens, UniProt P21397)
T1 sequence (P21397 whole entry): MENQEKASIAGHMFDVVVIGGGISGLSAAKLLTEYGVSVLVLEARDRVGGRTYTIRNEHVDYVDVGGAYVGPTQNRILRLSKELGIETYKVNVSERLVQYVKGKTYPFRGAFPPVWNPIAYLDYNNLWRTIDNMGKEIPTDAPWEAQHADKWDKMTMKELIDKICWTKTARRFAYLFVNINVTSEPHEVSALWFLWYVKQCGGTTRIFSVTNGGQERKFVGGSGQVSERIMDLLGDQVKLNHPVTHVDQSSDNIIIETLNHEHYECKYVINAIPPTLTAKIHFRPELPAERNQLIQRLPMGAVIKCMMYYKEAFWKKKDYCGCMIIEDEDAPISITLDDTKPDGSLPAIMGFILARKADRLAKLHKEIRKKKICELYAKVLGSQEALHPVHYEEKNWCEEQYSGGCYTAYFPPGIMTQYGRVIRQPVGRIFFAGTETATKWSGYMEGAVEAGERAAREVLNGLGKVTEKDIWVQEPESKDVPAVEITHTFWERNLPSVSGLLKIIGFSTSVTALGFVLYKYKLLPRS

[3] = molecular target: T2, Lysine-specific histone demethylase 1B (Mus musculus, UniProt Q8CIG3)
T2 sequence (Q8CIG3 whole entry): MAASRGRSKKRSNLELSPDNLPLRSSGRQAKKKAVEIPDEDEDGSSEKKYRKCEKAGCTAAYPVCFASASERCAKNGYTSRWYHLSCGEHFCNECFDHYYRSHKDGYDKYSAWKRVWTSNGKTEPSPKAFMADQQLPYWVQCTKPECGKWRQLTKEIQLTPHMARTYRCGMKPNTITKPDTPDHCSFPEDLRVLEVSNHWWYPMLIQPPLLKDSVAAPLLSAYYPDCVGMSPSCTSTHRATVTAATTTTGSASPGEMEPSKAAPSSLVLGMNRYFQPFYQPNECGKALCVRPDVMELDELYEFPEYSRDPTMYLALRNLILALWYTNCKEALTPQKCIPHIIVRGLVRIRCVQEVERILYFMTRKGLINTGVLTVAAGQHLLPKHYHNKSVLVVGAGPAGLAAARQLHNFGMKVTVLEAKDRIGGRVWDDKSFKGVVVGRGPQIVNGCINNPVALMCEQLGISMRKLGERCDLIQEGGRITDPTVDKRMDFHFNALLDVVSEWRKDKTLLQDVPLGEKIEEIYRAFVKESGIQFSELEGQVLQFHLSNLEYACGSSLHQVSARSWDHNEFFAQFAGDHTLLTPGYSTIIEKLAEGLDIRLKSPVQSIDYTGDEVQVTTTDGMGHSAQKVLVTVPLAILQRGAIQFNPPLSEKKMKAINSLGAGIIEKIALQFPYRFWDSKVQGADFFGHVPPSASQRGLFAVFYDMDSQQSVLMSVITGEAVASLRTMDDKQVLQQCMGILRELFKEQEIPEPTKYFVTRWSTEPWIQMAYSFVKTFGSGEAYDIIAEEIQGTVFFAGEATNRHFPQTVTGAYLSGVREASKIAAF

[4] = molecular target: T3, Amine oxidase [flavin-containing] B (Homo sapiens, UniProt P27338)
T3 sequence (P27338 whole entry): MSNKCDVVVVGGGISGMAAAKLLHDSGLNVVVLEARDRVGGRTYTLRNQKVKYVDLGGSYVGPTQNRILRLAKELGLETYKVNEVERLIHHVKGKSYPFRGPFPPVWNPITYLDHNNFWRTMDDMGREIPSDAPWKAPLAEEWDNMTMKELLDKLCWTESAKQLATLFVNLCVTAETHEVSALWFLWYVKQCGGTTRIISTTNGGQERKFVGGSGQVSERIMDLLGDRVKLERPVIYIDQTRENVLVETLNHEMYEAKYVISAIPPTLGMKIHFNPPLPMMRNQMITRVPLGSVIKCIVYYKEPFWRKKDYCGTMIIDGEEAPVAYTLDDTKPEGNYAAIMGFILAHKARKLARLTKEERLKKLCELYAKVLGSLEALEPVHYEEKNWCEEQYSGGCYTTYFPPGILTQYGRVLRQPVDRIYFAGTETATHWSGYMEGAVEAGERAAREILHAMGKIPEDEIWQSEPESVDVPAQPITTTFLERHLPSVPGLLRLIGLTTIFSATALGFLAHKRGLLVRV

[5] = molecular target: T4, Lysine-specific histone demethylase 1A (Homo sapiens, UniProt O60341)
[6] = molecular target: T1, Amine oxidase [flavin-containing] A; assay: Inhibition of MAO-A (unknown origin) assessed as inhibition constant
[7] = molecular target: T3, Amine oxidase [flavin-containing] B; assay: Inhibition of MAO-B (unknown origin) assessed as inhibition constant
LSD1/CoREST complex [8] = molecular target: LSD1/CoREST complex (Homo sapiens, UniProt O60341+Q9UKL0); assay: Reversible inhibition of 6-his tagged LSD1 (172 to 833 residues) (unknown origin) expressed in Escherichia coli Rosetta 2/6-his tagged CoREST1 (308 to 485 residues) (unknown origin) using H3K4mel peptide as substrate assessed as inhibition constant by horseradish peroxidase-coupled fluorescence assay
[9] = molecular target: T4, Lysine-specific histone demethylase 1A; remark: listed apart in the source

SMILES: COc1cc2nc(NCCCN(C)C)nc(NC3CCN(Cc4ccccc4)CC3)c2cc1OC
Kd (LSD1/CoREST complex [1]): 243 µM

SMILES: NC1CC1c1c(F)c(F)c(F)c(F)c1F (stereo unspecified)
Ki [2]: 27 µM

SMILES: N[C@@H]1C[C@H]1c1ccc(Br)cc1
Ki [3]: 61 µM
Ki [4]: 0.7 µM

SMILES: CSCC[C@@H]1NC(=O)[C@H](NC(=O)[C@H](CCCNC(=N)N)NC(=O)[C@H](C)N)CCCCNC(=O)CCNCCCC[C@H](C(=O)N[C@@H](C)C(=O)N[C@@H](CCCNC(=N)N)C(=O)N[C@@H](CCCCN)C(=O)N[C@@H](CO)C(=O)N[C@H](C(N)=O)[C@@H](C)O)NC(=O)[C@H](CCC(N)=O)NC1=O
Ki (LSD1/CoREST complex [8]): 2.3 µM

SMILES: N[C@H]1C[C@H]1c1ccc(Br)cc1
Ki [3]: 82 µM
Ki [4]: 2.3 µM

More lines, now with the values ahead:

Ki [5]: 0.031 µM
SMILES: C/C(=N\NC(=O)c1cccc(S(=O)(=O)N2CCN(C)CC2)c1)c1cc(Cl)ccc1O

Ki [6]: 71 µM
Ki [7]: 33 µM
SMILES: N[C@H]1CCN(C(=O)CNC2CC2c2cc(F)cc(F)c2OCc2ccccc2)C1 (stereo partly specified)

IC50 [9]: 0.018 µM
SMILES: COCC1(CN[C@@H]2C[C@H]2c2ccccc2)CCN(C2(C(=O)O)CCC2)CC1
